Measured values: patent US9062028B2, “Bicyclic nitrogen containing heteroaryl TGR5 receptor modulators” (Bristol-Myers Squibb Company, priority 2011, dated 2015)
Structures can show the parent of a compound that is named as a salt.

Tests used:
recombinant human DGAT1 = target: T1, recombinant human DGAT1 (Homo sapiens, UniProt O75907); assay: Diacylglycerol Acyltransferase (DGAT) Assay; assay type: biochemical; conditions: membranes from Sf9 cells expressing recombinant human DGAT1; 2-monooleoylglycerol and [3H]-oleoyl-CoA as substrates; read-out: IC50 against the DGAT1 enzyme
T1 construct: made in house; host or cells: Sf9 insect cells (baculovirus), membrane preparation
T1 sequence (O75907 1-488): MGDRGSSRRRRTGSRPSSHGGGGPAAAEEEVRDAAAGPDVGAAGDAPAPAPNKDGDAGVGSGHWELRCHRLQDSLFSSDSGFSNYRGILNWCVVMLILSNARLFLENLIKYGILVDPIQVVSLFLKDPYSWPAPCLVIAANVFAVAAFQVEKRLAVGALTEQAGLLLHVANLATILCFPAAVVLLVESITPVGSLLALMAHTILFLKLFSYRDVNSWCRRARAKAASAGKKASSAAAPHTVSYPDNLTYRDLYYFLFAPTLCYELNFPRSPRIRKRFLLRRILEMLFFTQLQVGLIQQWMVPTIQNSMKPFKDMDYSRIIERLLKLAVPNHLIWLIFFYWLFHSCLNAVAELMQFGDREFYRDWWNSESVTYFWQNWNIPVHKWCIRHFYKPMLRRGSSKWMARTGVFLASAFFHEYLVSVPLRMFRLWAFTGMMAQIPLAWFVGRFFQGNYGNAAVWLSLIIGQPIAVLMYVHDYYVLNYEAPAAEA
Description: Diacylglycerol Acyltransferase (DGAT) Assay
DGAT1 enzyme was assayed using membranes isolated from Sf9 cells expressing the recombinant human DGAT1 cDNA with 2-monooleoylglycerol and [^3H]-oleoyl-CoA as substrates as described by Seethala et al. (Anal Biochem., 383(2):144-150 (Dec. 15, 2008)). Briefly, the assays were conducted in 384-well plates in a total volume of 30 μl at 25° C. In each assay, 200 ng of recombinant human DGAT1 membrane was incubated with 10 μM of 2-monooleoylglycerol and 15 μM of [^3H]-oleoyl-CoA in 100 mM potassium phosphate (pH 7.4) for 20 min with various concentrations of compounds delivered in DMSO. The assay was terminated by the addition of 20 μl of Stopping Solution (7.5 mg/ml Yittrium Oxide Polylysine beads, 3.3 mg/ml Fraction V BSA and 200 μM Mercuric chloride in 50 mM HEPES, pH 7.4). The signal was measured 1 h after quenching the reaction using LEADSEEKER^SM for 5 minutes. To calculate the degree of inhibition, the zero level of enzyme activity (blank) was defined by the above assay procedure using membrane form Sf9 cell uninfected with baculovirus (Naive) and the 100% level of DGAT1 enzyme activity was defined by human […] DGAT1 assay with the vehicle DMSO. The IC50s of inhibitors were determined by logistic 4 parameter equation in XL-fit.

recombinant human TGR5 = target: T2, recombinant human TGR5 (Homo sapiens, UniProt Q8TDU6); assay: cAMP assay (cAMP accumulation, HTRF) in CHOK1 cells stably expressing TGR5; assay type: cell-based; conditions: CHOK1 cells stably expressing human TGR5, 30 minutes at RT, 1% DMSO
T2 construct: expressed in transfected cells
T2 sequence (Q8TDU6 1-330): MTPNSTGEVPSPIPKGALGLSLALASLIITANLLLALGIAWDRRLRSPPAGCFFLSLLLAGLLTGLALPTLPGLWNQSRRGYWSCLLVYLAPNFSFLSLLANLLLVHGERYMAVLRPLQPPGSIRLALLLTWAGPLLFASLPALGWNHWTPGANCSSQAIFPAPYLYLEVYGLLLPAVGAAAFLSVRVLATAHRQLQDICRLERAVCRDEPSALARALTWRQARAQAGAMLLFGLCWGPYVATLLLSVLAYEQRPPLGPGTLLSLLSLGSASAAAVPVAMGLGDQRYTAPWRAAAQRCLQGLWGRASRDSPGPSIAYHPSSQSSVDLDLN
How it was run: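 CHOK1 cells stably expressing TGR5 (text also calls it chimeric human/mouse), 0.4-0.5×10^6 cells/mL in PBS with Ca/Mg and 0.1 mM IBMX, compound 30 min at RT, 1% DMSO. cAMP by HTRF 665/620 interpolated to a standard curve; EC50 from 4-parameter fit as half-maximal increase.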

| SMILES | IC50 (recombinant human DGAT1) | EC50 (recombinant human TGR5) |
| --- | --- | --- |
| Cc1cccc(OCCCC(=O)N2CCCc3c(-c4cnn(Cc5cccc(OCCS(=O)(=O)O)c5)c4)cccc32)c1C [Example 215, 2-(3-((4-(1-(4-(2,3-Dimethylphenoxy)butanoyl)-1,2,3,4-tetrahydroquinolin-5-yl)-1H-pyrazol-1-yl)methyl)phenoxy)ethanesulfonic acid] | > 10 µM |  |
| Cc1cccc(OCCCC(=O)N2C[C@@H]3C[C@@H]3c3c(-c4cccc(COC(=O)NCCC(=O)O)c4)cccc32)c1C (single isomer, unassigned) [Example 237] | > 10 µM |  |
| Cc1c(Cl)cccc1OCCCC(=O)N1C[C@@H]2C[C@@H]2c2c(-c3cnn(Cc4cccc(C(=O)O)c4)c3)cccc21 (single isomer, unassigned) [Example 231] | > 10 µM | 0.047 µM |
| Cc1cccc(OCCCC(=O)N2CCCc3c(-c4cnn(Cc5cccc(NC(=O)NCS(=O)(=O)O)c5)c4)cccc32)c1C [Example 86, (3-(3-((4-(1-(4-(2,3-Dimethylphenoxy)butanoyl)-1,2,3,4-tetrahydroquinolin-5-yl)-1H-pyrazol-1-yl)methyl)phenyl)ureido)methanesulfonic acid] | > 10 µM |  |
| Cc1cccc(OCCCC(=O)N2CCCc3c(-c4cnn(CC(=O)O)c4)cccc32)c1C [Example 1, 2-(4-(1-(4-(2,3-Dimethylphenoxy)butanoyl)-1,2,3,4-tetrahydroquinolin-5-yl)-1H-pyrazol-1-yl)acetic acid] | > 10 µM | 3.54 µM |

The remaining lines, values ahead:

| IC50 (recombinant human DGAT1) | EC50 (recombinant human TGR5) | SMILES |
| --- | --- | --- |
| > 10 µM |  | Cc1cccc(OCCCC(=O)N2CCCc3c(-c4cnn(Cc5cccc(OCCP(=O)(O)O)c5)c4)cccc32)c1C [Example 69M, 2-(3-((4-(1-(4-(2,3-Dimethylphenoxy)butanoyl)-1,2,3,4-tetrahydroquinolin-5-yl)-1H-pyrazol-1-yl)methyl)phenoxy)ethylphosphonic acid] |
| > 10 µM |  | Cc1cccc(OCCCC(=O)N2CCCc3c(-c4ccnc(Nc5ccc(C(=O)O)cc5)c4)cccc32)c1C [Example 168A, 4-(4-(1-(4-(2,3-Dimethylphenoxy)butanoyl)-1,2,3,4-tetrahydroquinolin-5-yl)pyridin-2-ylamino) benzoic acid] |
| > 10 µM | 0.024 µM | Cc1c(Cl)cccc1OCCCC(=O)N1C[C@@H]2C[C@@H]2c2c(-c3cnn(Cc4cccc(C(=O)NCCS(=O)(=O)O)c4)c3)cccc21 [Example 138A, 2-(3-((4-((1aR,7bS)-3-(4-(3-Chloro-2-methylphenoxy)butanoyl)-1a,2,3,7b-tetrahydro-1H-cyclopropa[c]quinolin-7-yl)-1H-pyrazol-1-yl)methyl)benzamido) ethanesulfonic acid] |
| > 10 µM |  | Cc1cccc(OCCCC(=O)N2CCOc3c(-c4cnn(Cc5cccc(NC(=O)NCCS(=O)(=O)O)c5)c4)cccc32)c1C [Example 177N, 2-(3-(3-((4-(4-(4-(2,3-Dimethylphenoxy)butanoyl)-3,4-dihydro-2H-benzo[b][1,4]oxazin-8-yl)-1H-pyrazol-1-yl)methyl)phenyl)ureido) ethanesulfonic acid] |
| > 10 µM |  | Cc1cccc(OCCCC(=O)N2CCOc3c(-c4cnn(Cc5c(F)cc(C(=O)NCC[N+](C)(C)C)cc5Cl)c4)cccc32)c1C [Example 177P, 2-(3-Chloro-4-((4-(4-(4-(2,3-dimethylphenoxy)butanoyl)-3,4-dihydro-2H-benzo[b][1,4]oxazin-8-yl)-1H-pyrazol-1-yl)methyl)-5-fluorobenzamido)-N,N,N-trimethylethanaminium, TFA] |
| > 10 µM |  | Cc1cccc(OCCCC(=O)N2CC3CC3c3c(-c4cnn(Cc5c(F)cc(C(=O)NCCC[C@H](N)C(=O)O)cc5Cl)c4)cccc32)c1C (stereo partly drawn) [Example 69A, (2S)-2-Amino-5-(3-chloro-4-((4-(3-(4-(2,3-dimethylphenoxy)butanoyl)-1a,2,3,7b-tetrahydro-1H-cyclopropa[c]quinolin-7-yl)-1H-pyrazol-1-yl)methyl)-5-fluorobenzamido)pentanoic acid] |
